Laboratory results: publication PMC10709440, “High-throughput ligand profile characterization in novel cell lines expressing seven heterologous insect olfactory receptors for the detection of volatile plant biomarkers” (Scientific Reports, 2023)
Like-named read-outs stand apart in the source and are kept apart here.

Columns and labels:
Drosophila OR47a = target: T1, Drosophila OR47a (Drosophila melanogaster, UniProt P81921); test: Calcium ion fluorescence (GCaMP6) assay, OR47a stable HEK293 cell line; assay type: cell-based; settings: for Average response: mean of biological replicates
T1 construct: expressed in transfected cells
T1 sequence (P81921 1-385): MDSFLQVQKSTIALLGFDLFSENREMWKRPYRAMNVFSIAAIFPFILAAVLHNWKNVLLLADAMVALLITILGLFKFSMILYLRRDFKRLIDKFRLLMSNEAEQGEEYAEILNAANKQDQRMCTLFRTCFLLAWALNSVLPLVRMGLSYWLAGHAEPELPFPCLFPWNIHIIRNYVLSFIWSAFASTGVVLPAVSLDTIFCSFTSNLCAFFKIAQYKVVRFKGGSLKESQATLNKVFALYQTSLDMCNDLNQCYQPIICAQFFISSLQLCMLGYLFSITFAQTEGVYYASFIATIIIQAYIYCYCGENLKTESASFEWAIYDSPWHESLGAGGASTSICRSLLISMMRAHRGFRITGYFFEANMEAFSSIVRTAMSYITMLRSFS
T1 sequence (Q9VNB5 1-486 partner): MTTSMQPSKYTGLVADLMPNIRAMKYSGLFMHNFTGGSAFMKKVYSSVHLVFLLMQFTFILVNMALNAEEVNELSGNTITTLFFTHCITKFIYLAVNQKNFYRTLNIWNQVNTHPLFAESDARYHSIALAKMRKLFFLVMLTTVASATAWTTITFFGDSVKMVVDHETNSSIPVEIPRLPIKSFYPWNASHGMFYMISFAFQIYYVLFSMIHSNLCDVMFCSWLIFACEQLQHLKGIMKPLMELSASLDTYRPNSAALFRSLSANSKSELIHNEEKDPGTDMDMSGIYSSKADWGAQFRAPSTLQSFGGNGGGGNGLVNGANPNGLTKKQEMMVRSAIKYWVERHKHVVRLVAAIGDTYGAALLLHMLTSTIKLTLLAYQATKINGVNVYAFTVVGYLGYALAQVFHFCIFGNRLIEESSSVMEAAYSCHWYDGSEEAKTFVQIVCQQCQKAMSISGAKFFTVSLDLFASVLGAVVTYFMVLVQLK
Description: (§1) These VUAA1 normalized ∆F values were used to compare the different receptors and ligands.
(§2) The concentration-dependent effect of the reference ligands on their cognate cell lines was examined in more detail. Twelve different ligand concentrations were measured on each cell line in an overall 0.01 μM to 100 μM concentration range with 5 repetitions with three technical replicates each time.
(§3) Twelve thousand to 18,000 cells were plated into each well of a black wall, transparent bottom 384-well microplate (Greiner) 48 h or 72 h before the measurements and were simultaneously treated with 1 μg/mL doxycycline. […] The plate has 24 columns, thus we could record responses in up to eight different cell lines in each plate. On the day of the experiment, the growth medium was replaced with 20 µL assay buffer/well (140 mM NaCl, 5 mM KCl, 2 mM CaCl2, 1 mM MgCl2, 5 mM HEPES-Na, 20 mM glucose, pH 7.3, 340 mOsm). […] Baseline fluorescence (F0) was recorded for 5 s, after which 7 µL VOC buffer (140 mM NaCl, 5 mM KCl, 2 mM CaCl2, 1 mM MgCl2, 5 mM HEPES-Na, 31 mM glucose, 0.1% DMSO, pH 7.3, 340 mOsm) was injected into each well in one row and the fluorescence response was recorded for an additional 30 s, at a rate of one read/sec. VOC solutions (VOC buffer with 4× concentration of the final measured VOC concentration, 9 µL/well was injected) were measured on the same wells in a second round with the same protocol. Each individual concentration of a specific VOC sample was recorded in three wells for the same cell line on the same microplate. The raw data were exported in xls file format, F0 and FMAX values, and the fluorescence intensity changes (∆F) were calculated in Excel (Microsoft) (Supplementary file Data summary.xlsx) using the following equation: ΔF=FMAX-F0/F0 (see also Fig. 1C). On each plate, we recorded the response of each cell line to 50 µM VUAA1. The average of these ∆F values of each cell line were used to calculate the VUAA1-normalized values for the rest of the plate, by dividing VOC response ∆F values by the average VUAA1 response ∆F value of the corresponding OR cell line. Each VOC-OR combination was measured three times as technical replicates. […] The average of these replicates were used as one ∆F and VUAA1-normalized ∆F in the following analysis.
(§4) In the next rows we tested the reference VOCs (or other VOCs known to activate the corresponding cell lines), in order to test if all cell lines are responsive. The remaining rows were used to test VOCs with unknown effect.
(§5) The recorded FMAX, F0, ∆F, VUAA1-normalized ∆F values, as well as the OR name, the name of the tested sample, and the final concentration for each well were copied into supplementary file Data summary.xlsx, that was used to summarize all the plates recorded. Here, the averages of the measurements were calculated for each receptor-VOC-concentration combination.

Drosophila OR85b = target: T2, Drosophila OR85b (Drosophila melanogaster, UniProt Q9VHQ7); test: Calcium ion fluorescence (GCaMP6) assay, OR85b stable HEK293 cell line; assay type: cell-based; settings: for Average response: VUAA1-normalized response, mean of biological replicates
T2 construct: expressed in transfected cells
T2 sequence (Q9VHQ7 1-390): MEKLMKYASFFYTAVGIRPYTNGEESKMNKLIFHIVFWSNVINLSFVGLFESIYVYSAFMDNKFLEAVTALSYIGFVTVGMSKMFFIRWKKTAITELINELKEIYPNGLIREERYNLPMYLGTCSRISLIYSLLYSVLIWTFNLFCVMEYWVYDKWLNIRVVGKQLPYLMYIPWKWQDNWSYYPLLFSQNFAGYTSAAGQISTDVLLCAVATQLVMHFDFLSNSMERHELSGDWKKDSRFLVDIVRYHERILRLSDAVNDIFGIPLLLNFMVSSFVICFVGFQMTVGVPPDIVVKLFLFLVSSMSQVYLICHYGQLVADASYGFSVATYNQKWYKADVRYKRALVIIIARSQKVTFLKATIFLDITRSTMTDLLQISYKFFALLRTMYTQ
T2 sequence (Q9VNB5 1-486 partner): T1 sequence (Q9VNB5 1-486 partner)
Description: as §1, §2, §3, §4, §5

[1] = HEK293, read-out: OR47a Average response (VUAA1-normalized)
[2] = HEK293, read-out: OR47a response (VUAA1-normalized response)
[3] = OR47a cell line, odorant cc. 1 µM
[4] = OR47a cell line, odorant cc. 10 µM
[5] = OR47a cell line, odorant cc. 100 µM
[6] = ligand concentration 1 (unit not given), threshold 0.05, below shown as 0
[7] = ligand concentration 10 (unit not given), threshold 0.05, below shown as 0
[8] = ligand concentration 100 (unit not given), threshold 0.05, below shown as 0
[9] = HEK293, read-out: OR85b response (VUAA1-normalized response)
[10] = concentration 1, normalized fluorescence change, values below 0.05 threshold given as 0
[11] = concentration 10, normalized fluorescence change, values below 0.05 threshold given as 0
[12] = concentration 100, normalized fluorescence change, values below 0.05 threshold given as 0
[13] = ligand concentration 1 (unit not given), 0.05 threshold, values below shown as 0
[14] = ligand concentration 10 (unit not given), 0.05 threshold, values below shown as 0
[15] = ligand concentration 100 (unit not given), 0.05 threshold, values below shown as 0
[16] = HEK293, read-out: OR85b Average response (VUAA1-normalized)

SMILES | activation at 1 µM (Drosophila OR47a; [2]) | activation at 10 µM (Drosophila OR47a; [2]) | activation at 100 µM (Drosophila OR47a; [2]) | Average response (Drosophila OR47a; [3]) | Average response (Drosophila OR47a; [4]) | Average response (Drosophila OR47a; [5]) | DF norm AVERAGE OR47a (Drosophila OR47a; [6]) | DF norm AVERAGE OR47a (Drosophila OR47a; [7]) | DF norm AVERAGE OR47a (Drosophila OR47a; [8]) | activation at 1 µM (Drosophila OR85b; [9]) | activation at 10 µM (Drosophila OR85b; [9]) | activation at 100 µM (Drosophila OR85b; [9]) | Average response (Drosophila OR85b; OR85b cell line, cc. 1 µM) | Average response (Drosophila OR85b; OR85b cell line, cc. 10 µM) | Average response (Drosophila OR85b; OR85b cell line, cc. 100 µM) | DF norm AVERAGE OR85b (Drosophila OR85b; [6]) | DF norm AVERAGE OR85b (Drosophila OR85b; [7]) | DF norm AVERAGE OR85b (Drosophila OR85b; [8]) | other results
CCCCCC(=O)OCC [ethyl hexanoate] | 6.62% | 26% | 67% | 0.0662 | 0.26 | 0.67 | 0.06617 | 0.2596 | 0.6687 | 0% | 0% | 0% | 0.00 | 0.05 | 0.0232 | 0 | 0 | 0 | activation at 1 µM (Drosophila OR47a; [1]): 7%; activation at 10 µM (Drosophila OR47a; [1]): 26%; activation at 100 µM (Drosophila OR47a; [1]): 67%
CCCCCCCCC(CO)CCCCCC (stereo not drawn) [2-hexyl-1-decanol] | 0% | 0% | 0% | 0.00 | 0.05 | 0.00 | – | – | – | 13% | 7% | 8% | 0.13 | 0.07 | 0.08 | – | – | – | DF norm AVERAGE OR47a (Drosophila OR47a; [10]): 0; DF norm AVERAGE OR47a (Drosophila OR47a; [11]): 0; DF norm AVERAGE OR47a (Drosophila OR47a; [12]): 0; DF norm AVERAGE OR85b (Drosophila OR85b; [10]): 0.1336; DF norm AVERAGE OR85b (Drosophila OR85b; [11]): 0.06997; DF norm AVERAGE OR85b (Drosophila OR85b; [12]): 0.07977
CC(=O)OCC(C)C [isobutyl acetate] | 19% | 15% | 65% | 0.19 | 0.15 | 0.65 | 0.1884 | 0.1518 | 0.646 | 0% | 0% | 0% | 0.044 | 0.00 | 0.03 | 0 | 0 | 0 | activation at 1 µM (Drosophila OR47a; [1]): 19%; activation at 10 µM (Drosophila OR47a; [1]): 15%; activation at 100 µM (Drosophila OR47a; [1]): 65%
CCCCCCCCCC=O [decanal] | 0% | 0% | 0% | 0.00 | 0.00 | 0.00 | 0 | 0 | 0 | 0% | 0% | 0% | 0.00 | 0.0324 | 0.00 | 0 | 0 | 0 | –
CC(C)=CCC/C(C)=C/CC/C(C)=C/CO [e,e-farnesol] | – | – | – | 0.03 | 0.00 | 0.032 | 0 | 0 | 0 | – | – | – | 0.053 | 0.08 | 0.00 | 0.05296 | 0.07925 | 0 | OR47a response (VUAA1-normalized response) (Drosophila OR47a; VOC concentration 1 μM): 0.00; OR47a response (VUAA1-normalized response) (Drosophila OR47a; VOC concentration 10 μM): 0.00; OR47a response (VUAA1-normalized response) (Drosophila OR47a; VOC concentration 100 μM): 0.00; OR85b response (VUAA1-normalized response) (Drosophila OR85b; VOC concentration 1 μM): 0.053; OR85b response (VUAA1-normalized response) (Drosophila OR85b; VOC concentration 10 μM): 0.08; OR85b response (VUAA1-normalized response) (Drosophila OR85b; VOC concentration 100 μM): 0.00
CCCCCCCCCCC [undecane] | – | – | – | 0.00 | 0.00 | 0.00 | – | – | – | – | – | – | 0.0284 | 0.05 | 0.11 | – | – | – | OR47a response (VUAA1-normalized) at 1 μM (Drosophila OR47a; OR47a cell line, VOC concentration 1 μM): 0.00; OR47a response (VUAA1-normalized) at 10 μM (Drosophila OR47a; OR47a cell line, VOC concentration 10 μM): 0.00; OR47a response (VUAA1-normalized) at 100 μM (Drosophila OR47a; OR47a cell line, VOC concentration 100 μM): 0.00; DF norm AVERAGE OR47a (Drosophila OR47a; [13]): 0; DF norm AVERAGE OR47a (Drosophila OR47a; [14]): 0; DF norm AVERAGE OR47a (Drosophila OR47a; [15]): 0; activation at 1 µM (Drosophila OR85b; [16]): 3%; activation at 10 µM (Drosophila OR85b; [16]): 5%; activation at 100 µM (Drosophila OR85b; [16]): 11%; OR85b response (VUAA1-normalized) at 1 μM (Drosophila OR85b; OR85b cell line, VOC concentration 1 μM): 0.00; OR85b response (VUAA1-normalized) at 10 μM (Drosophila OR85b; OR85b cell line, VOC concentration 10 μM): 0.05; OR85b response (VUAA1-normalized) at 100 μM (Drosophila OR85b; OR85b cell line, VOC concentration 100 μM): 0.11; DF norm AVERAGE OR85b (Drosophila OR85b; [13]): 0; DF norm AVERAGE OR85b (Drosophila OR85b; [14]): 0.05165; DF norm AVERAGE OR85b (Drosophila OR85b; [15]): 0.1131
CCCCOC(C)=O [butyl acetate] | – | – | – | – | – | – | – | – | – | 0% | 0% | 0% | 0.00 | 0.00 | 0.00 | 0 | 0 | 0 | –
